This passage reports mutagenic call results from PubChem BioAssay AID1259407 (Chemical Carcinogenesis Research Information System (CCRIS), 2018).

The source made the active and inactive calls. No rule for the calls is given here.

This data set has as its system CCRIS mutagenicity, Ames/micronucleus/aberration tests. Put plainly: CCRIS mutagenicity studies.
The mark [1] stands for this setting: Test System: AMES SALMONELLA TYPHIMURIUM, Strain/Indicator: TA100, Metabolic Activation: NONE, Method: STANDARD PLATE.
The mark [2] stands for this setting: Test System: AMES SALMONELLA TYPHIMURIUM, Strain/Indicator: TA100, Metabolic Activation: RAT, LIVER, S-9, AROCLOR 1254, Method: STANDARD PLATE.
The mark [3] stands for this setting: Test System: AMES SALMONELLA TYPHIMURIUM, Strain/Indicator: TA98, Metabolic Activation: NONE, Method: PREINCUBATION
The mark [4] stands for this setting: Test System: AMES SALMONELLA TYPHIMURIUM, Strain/Indicator: TA100, Metabolic Activation: NONE, Method: PREINCUBATION
Where [5] appears, read: Test System: AMES SALMONELLA TYPHIMURIUM, Strain/Indicator: TA98, Metabolic Activation: NONE, Method: STANDARD PLATE.
Setting [6] is: Test System: AMES SALMONELLA TYPHIMURIUM, Strain/Indicator: TA98, Metabolic Activation: RAT, LIVER, S-9, AROCLOR 1254, Method: STANDARD PLATE.

`C=C(Cl)CSC(=S)N(CC)CC`: the mutagenic call runs as follows: under setting [1], “inactive; negative”; (Test System: AMES SALMONELLA TYPHIMURIUM, Strain/Indicator: TA100, Metabolic Activation: RAT, LIVER, CYTOSOL, AROCLOR 1254, Method: STANDARD PLATE) “inactive; negative”; (Test System: AMES SALMONELLA TYPHIMURIUM, Strain/Indicator: TA100, Metabolic Activation: RAT, LIVER, MICROSOMES, AROCLOR 1254, Method: STANDARD PLATE) “inactive; negative”; (Test System: AMES SALMONELLA TYPHIMURIUM, Strain/Indicator: TA100, Metabolic Activation: RAT, LIVER, MICROSOMES, CYTOSOL, AROCLOR 1254, Method: STANDARD PLATE) “active; positive”; under setting [2], “active; positive”.
In the case of `OCCN(CCO)c1ccc2ccccc2c1`, the mutagenic call runs as follows: under setting [1], “inactive; negative”; (Test System: AMES SALMONELLA TYPHIMURIUM, Strain/Indicator: TA100, Metabolic Activation: RAT, LIVER, S-9, AROCLOR (10%), Method: STANDARD PLATE) “active; positive”.
For `COc1cccc2c1[C@H](CO)N1[C@@H](C#N)[C@@H]3C[C@@H](C(=O)O)[C@H]([C@@H]1C2)N3C`, the mutagenic call reads like this: (Test System: Mouse lymphoma, Strain/Indicator: L5178Y (tk+/tk-), Metabolic Activation: None, Method: Suspension/plate) “active; positive”; (Test System: Mouse lymphoma, Strain/Indicator: L5178Y (tk+/tk-), Metabolic Activation: Rat, Liver, S-9, Aroclor 1254, Method: Suspension/plate) “active; positive”.
As to `Clc1cccc(Cl)c1NC1=NCCN1`, the mutagenic call was “inactive; negative” under setting [3]; “inactive; negative” (Test System: AMES SALMONELLA TYPHIMURIUM, Strain/Indicator: TA98, Metabolic Activation: S-9, Method: PREINCUBATION); “inactive; negative” under setting [4]; “inactive; negative” (Test System: AMES SALMONELLA TYPHIMURIUM, Strain/Indicator: TA100, Metabolic Activation: S-9, Method: PREINCUBATION); “inactive; negative” (Test System: AMES SALMONELLA TYPHIMURIUM, Strain/Indicator: TA1535, Metabolic Activation: NONE, Method: PREINCUBATION); “inactive; negative” (Test System: AMES SALMONELLA TYPHIMURIUM, Strain/Indicator: TA1535, Metabolic Activation: S-9, Method: PREINCUBATION). The mutagenic call was “inactive; negative” (Test System: AMES SALMONELLA TYPHIMURIUM, Strain/Indicator: TA1537, Metabolic Activation: NONE, Method: PREINCUBATION); “inactive; negative” (Test System: AMES SALMONELLA TYPHIMURIUM, Strain/Indicator: TA1537, Metabolic Activation: S-9, Method: PREINCUBATION); “inactive; negative” (Test System: E. COLI, Strain/Indicator: WP2 UVRA, Metabolic Activation: NONE, Method: PREINCUBATION); “inactive; negative” (Test System: E. COLI, Strain/Indicator: WP2 UVRA, Metabolic Activation: S-9, Method: PREINCUBATION); “inactive; negative” (Test System: UDS RAT HEPATOCYTES, Strain/Indicator: THY INCORP, Metabolic Activation: NONE, Method: IN VIVO-IN VITRO).
On to `O=S1OC[C@@H]2[C@H](CO1)[C@]1(Cl)C(Cl)=C(Cl)[C@@]2(Cl)C1(Cl)Cl` (some centres undefined), for which the mutagenic call (Test System: AMES SALMONELLA TYPHIMURIUM, Strain/Indicator: TA97, Metabolic Activation: NONE, Method: STANDARD PLATE) is “inactive; negative”; the mutagenic call (Test System: AMES SALMONELLA TYPHIMURIUM, Strain/Indicator: TA97, Metabolic Activation: RAT, LIVER, S-9, AROCLOR 1254, Method: STANDARD PLATE) was “inactive; negative”; the mutagenic call under setting [5] was “inactive; negative”; the mutagenic call under setting [6] was “inactive; negative”; the mutagenic call under setting [1] is “inactive; negative”; the mutagenic call under setting [2] is “inactive; negative”. Besides, the mutagenic call was “inactive; negative” (Test System: AMES SALMONELLA TYPHIMURIUM, Strain/Indicator: TA102, Metabolic Activation: NONE, Method: STANDARD PLATE) and “inactive; negative” (Test System: AMES SALMONELLA TYPHIMURIUM, Strain/Indicator: TA102, Metabolic Activation: RAT, LIVER, S-9, AROCLOR 1254, Method: STANDARD PLATE).
As for `CC(=O)c1cccc2c1OC1(C)OOC21C` (centres undefined), the mutagenic call under setting [4] was “active; positive”.
Consider `Nc1cc([N+](=O)[O-])c(N)cc1Cl`, for which the mutagenic call runs as follows: under setting [5], “active; positive”; under setting [6], “active; positive”; under setting [1], “inactive; negative”; under setting [2], “inactive; negative”; (Test System: AMES SALMONELLA TYPHIMURIUM, Strain/Indicator: TA1535, Metabolic Activation: NONE, Method: STANDARD PLATE) “inactive; negative”; (Test System: AMES SALMONELLA TYPHIMURIUM, Strain/Indicator: TA1535, Metabolic Activation: RAT, LIVER, S-9, AROCLOR 1254, Method: STANDARD PLATE) “inactive; negative”. Also, the mutagenic call runs as follows: (Test System: AMES SALMONELLA TYPHIMURIUM, Strain/Indicator: TA1537, Metabolic Activation: NONE, Method: STANDARD PLATE) “inactive; negative”; (Test System: AMES SALMONELLA TYPHIMURIUM, Strain/Indicator: TA1537, Metabolic Activation: RAT, LIVER, S-9, AROCLOR 1254, Method: STANDARD PLATE) “inactive; negative”; (Test System: AMES SALMONELLA TYPHIMURIUM, Strain/Indicator: TA1538, Metabolic Activation: NONE, Method: STANDARD PLATE) “active; positive”; (Test System: AMES SALMONELLA TYPHIMURIUM, Strain/Indicator: TA1538, Metabolic Activation: RAT, LIVER, S-9, AROCLOR 1254, Method: STANDARD PLATE) “active; positive”.
On to `CNS(=O)(=O)c1ccc(N)cc1`, for which the mutagenic call by setting is: under setting [3], “inactive; negative”; (Test System: AMES SALMONELLA TYPHIMURIUM, Strain/Indicator: TA98, Metabolic Activation: RAT, LIVER, S-9, AROCLOR 1254, Method: PREINCUBATION) “inactive; negative”; under setting [4], “inactive; negative”; (Test System: AMES SALMONELLA TYPHIMURIUM, Strain/Indicator: TA100, Metabolic Activation: RAT, LIVER, S-9, AROCLOR 1254, Method: PREINCUBATION) “inactive; negative”.
As for `CCC(C)[N+](=O)[O-]` (centres undefined), the mutagenic call by setting is: under setting [4], “inactive; negative”; (Test System: AMES SALMONELLA TYPHIMURIUM, Strain/Indicator: TA100, Metabolic Activation: RAT, LIVER, S-9, AROCLOR, Method: PREINCUBATION) “inactive; negative”; (Test System: AMES SALMONELLA TYPHIMURIUM, Strain/Indicator: TA102, Metabolic Activation: NONE, Method: PREINCUBATION) “inactive; negative”; (Test System: AMES SALMONELLA TYPHIMURIUM, Strain/Indicator: TA102, Metabolic Activation: RAT, LIVER, S-9, AROCLOR, Method: PREINCUBATION) “inactive; negative”; (Test System: E. COLI, Strain/Indicator: WP2 UVRA (PKM101), Metabolic Activation: NONE, Method: PREINCUBATION) “active; positive”; (Test System: E. COLI, Strain/Indicator: WP2 UVRA (PKM101), Metabolic Activation: RAT, LIVER, S-9, KANECHLOR 1254, Method: PREINCUBATION) “active; positive”. For the setting “Test System: UDS RAT HEPATOCYTES, Strain/Indicator: THY INCORP, Metabolic Activation: NONE”, the mutagenic call is “active; positive”.
For the compound `Cc1c(O)cc([N+](=O)[O-])cc1[N+](=O)[O-]`, the mutagenic call (Test System: AMES SALMONELLA TYPHIMURIUM, Strain/Indicator: TA98, Metabolic Activation: RAT, LIVER, S-9, KANECHLOR 500, Method: PREINCUBATION) is “inactive; negative”; the mutagenic call under setting [4] is “inactive; negative”; the mutagenic call (Test System: AMES SALMONELLA TYPHIMURIUM, Strain/Indicator: TA100, Metabolic Activation: RAT, LIVER, S-9, KANECHLOR 500, Method: PREINCUBATION) was “inactive; negative”.
Consider `O=C1OCC(C(Br)Br)=C1Cl`, for which the mutagenic call under setting [1] is “active; positive”.
